Laboratory results taken from ChEMBL document CHEMBL1135240, “Benzene fused monocyclic enediynyl amides: synthesis, reactivity and DNA-cleavage activity in comparison to the corresponding sulfonamides” (Bioorg Med Chem Lett, 2002).

Tests used:
[1] = The compound was evaluated for rate constant at 70 deg. C; type: ADME
[2] = The compound was evaluated for half life at 70 deg. C; type: ADME

| Rate constant [1] | half-life [2] | SMILES |
| --- | --- | --- |
| 0.0143 h⁻¹ | 49 h | O=[N+]([O-])c1ccc(S(=O)(=O)N2CC#Cc3ccccc3C#CCC2)cc1 |
| 0.0051 h⁻¹ | 136 h | O=C(c1ccc([N+](=O)[O-])cc1)N1CC#Cc2ccccc2C#CCC1 |
| 0.0037 h⁻¹ | 188 h | O=C(c1ccccc1)N1CC#Cc2ccccc2C#CCC1 |
| 0.0244 h⁻¹ | 28 h | O=[N+]([O-])c1ccc(S(=O)(=O)N2CC#Cc3ccccc3C#CCC2)c([N+](=O)[O-])c1 |
